The results in this text go back to patent publication US20060194819A1, “Activation specific inhibitors of nf-kb and method of treating inflammatory processes in cardio-vascular diseases” (PROCORDE GMBH, priority 2003, published 2006).

By IC50 is commonly meant the point on the concentration scale where inhibition reaches its midpoint.

Like-named read-outs stand apart in the source and are kept apart here.

The test system of one series is HeLa cells. Put plainly: Cell viability, WST-1 assay. The format is cell-based. How it is done: […] The medium was changed and 10 μL of the WST-1 reagent was added to each well. After 2 h the absorption of 450 nm was measured in an Elisa-reader.
In general terms: Tetrazolium assays rely on reduction of a dye to a coloured formazan, in cell work by metabolically active cells.

The test system of the next series is NF-kappaB. The series can be described thus: Electrophoretic mobility shift assay (EMSA) for NF-kappaB in LPS stimulated THP-1 monocytic cells. The format is cell-based. The note with it: THP-1 cells; for NF-kappaB activation: LPS. How it is done:
Electrophoretic Mobility Shift Assay (EMSA): THP-1 monocytic cells (DSM, Braunschweig, Germany) were maintained in suspension in RPMI 1640 (Glutamax-1, low endotoxin) containing 7% fetal calf serum (FCS) (Myoclone super plus, low endotoxin), 100 units/ml penicillin, and […] streptomycin (Life Technologies, Inc., Eggenstein, Germany). For the experiments, the cells were plated at a density of 3×10^6 per well in 6-well culture dishes. Nuclear extracts were prepared by harvesting cells by centrifugation at 1200 rpm for 7 min at 4° C. The cells were resuspended by adding 1 ml ice cold PBS and transferred into a microcentrifuge tube. After centrifugation at 2000 g for 2 min by 4° C. the pellet was lysed in 50 μl buffer A (10 mM Hepes, pH 7.9, 0.1% NP40, 10 mM, 300 mM Sucrose, 10 mM KCl, 15 mM MgCl2, 1 mM DTT, 0.5 mM PMSF and antipain, aprotinin, leupeptin each 0.75 μg/ml (Sigma)). After 5 min incubation on ice and centrifugation at 16000 g for 5 sec the pellet was washed with 100 μl buffer A. The nuclear pellet was resuspended with 100 μl buffer B (20 mM Hepes, pH 7.9, 100 mM KCl, 100 mM NaCl, 1 mM DTT, 20% Glycerol, 0.5 mM PMSF and antipain, aprotinin, leupeptin each 0.75 μg/ml (Sigma)) and sonicated for 10 sec. The probe was pulse centrifuged at 16000 g for 5 sec. The nuclear extract was aliquoted and snap-freeze in liquid N2. Nuclear extracts ([…] of protein) were incubated with radiolabeled DNA probes (10 ng; 10^5 cpm) for 30 min at room temperature in […] of binding buffer (20 mM HEPES, pH 7.9, 50 mM KCl, 1 mM dithiothreitol, 0.5 mM EDTA, 10% glycerol, 1 mg/ml bovine serum albumin, 0.2% Nonidet P-40, 50 ng of poly(dI-dC)/ml). […] The binding of Sp-1 and AP-1 was also analysed by EMSA using specific consensus oligonucleotides (Promega, Heidelberg, Germany) that were labeled with [γ-^32P]ATP (>5,000 Ci/mmol, NEN Life Science Products) and T4 polynucleotide kinase (Boehringer Mannheim). Gels were dried and analysed by autoradiography. […]
(In general: In EMSA bound probe runs differently from free probe, usually more slowly.)

Series [1] has as its system I KappaB alpha phosphorylation. The series can be described thus: P-IkBalpha detection in Western blot of HeLa cell lysates after TNF alpha stimulation. The note with it: HeLa cells, 10 and 100 μM. The format is cell-based. How it is done:
P-IkBα Detektion in Western-Blot Protocol: HeLa cells were maintained in Dulbecco's modified Eagle's medium (Invitrogen) supplemented with 10% fetal bovine serum, 2 mM L-glutamine, penicillin (50 units/ml) and streptomycin (50 μg/ml). 24 h before treatment with different compounds HeLa cells were plated at a density of 5×10^6 per well in 100-mm cell culture dishes to 90% confluences.
The cells were incubated with different drugs at the concentration indicated for 1 h, washed twice with PBS and stimulated with 20 ng/ml TNF alpha (Roche). After 7 min the cells were washed twice with ice cold PBS followed by scraping and transferring into a 1.5 ml micro centrifuge tube. After centrifugation by 2000 rpm for 2 min by 4° C. the PBS supernatant was removed and 200 μl lysis-buffer (10 mM Hepes, pH 7.9, 0.1% NP40, 10 mM, 300 mM Sucrose, 10 mM KCl, 15 mM MgCl2, 1 mM DTT, 0.5 mM PMSF and antipain, aprotinin, leupeptin each 0.75 μg/ml (Sigma) was added to the pellet. The resuspended pellet was incubated on ice for 5 min and centrifuged at 13000 g for 30 s. 30 μl of the supernatant, cytosolic extract, was diluted with Laemmli-buffer (2% SDS, 2% 2-Mercaptoethanol, 0.01% Bromophenol blue, 8% Glycerine), heated by 60° C. for 10 min and loaded to a 4-20% polyacrylamid gels (BioRad). After electrophoresis the proteins were transferred to a nitrocellulose membrane using the wet blotting technique. First the membrane was blocked with Roti-Block (Roth) and afterwards incubated with monoclonal antibodies against P-IkBalpha (Santa Cruz Biotechnology, used at 1:200 dilution). This incubation was followed by the appropriate horseradish peroxidase-conjugated secondary antibody (Dianova) at 1:10000 dilution. Antibody binding was visualized on x-ray film using the Western blot Chemiluminescent Reagent Detection Kit (Santa Cruz).
Background: Immunoblotting shows a protein as a band on a membrane.

The nature of series [2]: Isomerization in solution observed by NMR. The format is physicochemical. The source says:
These signals were tentatively attributed to a cis/trans isomer of compound 4. The signal intensities of this isomer accounted for approximately 10% of the signals due to the major product. In acetone-db, this isomerization was slower and occurred within days.

The test system of series [3] is ICAM expression in HUVEC cells. The series can be described thus: ICAM expression in HUVEC cells by FACS analysis. The format is cell-based. The conditions noted are these: Homo sapiens, read-out: IC50 for inhibition of ICAM expression. How it is done:
HUVEC cells were seeded in 6-well plates 1×10^6 cells/well. After 24 h the cells were treated with different concentration of compound 68. After 1 h the medium was removed and the cells incubated with either IL-1 (100 pg/ml) or TNF alpha (1 ng/ml) for a total of 4 h. Thereafter the cells were harvested with trypsin, washed with PBS and centrifuged with 1000 rpm for 5 min. The pellet was resuspended in 50 μl PBS and 5 μl CD54-PE antibody (anti-ICAM antibody from Beckman/Coulter/Immunotech). After washing twice in PBS, the ICAM cell surface expression was analysed by a FACScan (Becton Dickinson).

The nature of series [4]: Solubility tests, 1.2 mg in 500 μl of each solvent. The format is physicochemical. How it is done:
Solubility tests were performed with aliquots of compound 4 (1.2 mg) and 500 μl of each solvent.

Consider `O=C(N/N=C/c1ccc(/C=N/NC(=O)c2ccc([N+](=O)[O-])o2)cc1)c1ccc([N+](=O)[O-])o1` [Compound 54], for which, in the series with HeLa cells (HeLa cells, 30 μM, 3 h), the “decrease in metabolic activity compared with untreated control (WST-1)” value is given as “no significant decrease”. In the series on HeLa cells (HeLa cells, 0.3 to 100 μmol/L, one day), the “influence on cell viability (WST staining)” value is listed as “no negative influence”. The “toxicity for HeLa cells (WST-1)” value in the series on HeLa cells (concentrations and conditions of the described assays) was “not found to be toxic”. For the same compound, the NF-kappaB activation result with NF-kappaB (12.5 μM and 25 μM) is on record as “significantly affected”; in the series with NF-kappaB (50 μM and 100 μM), “nearly completely abolished”. Also, in the series on NF-kappaB (100 μM, 1 h, LPS 1 μg/ml), the “reduced NF-kappaB-release” value turned out to be 95%. Besides, the “effect on IkappaB phosphorylation (Western blot), comparison of COM 73 and COM 54 family” value in series [1] is recorded as “no effect”.

In the case of `O=C(NN=Cc1ccccc1O)c1ccc([N+](=O)[O-])o1` [COM 68, 5-Nitro-furan-2-carboxylic acid (2-hydroxy-benzylidene)-hydrazide], the “cell viability (WST staining)” value with HeLa cells (HeLa cells, 33 and 100 μmol/L, one day) is “decreased cell viability”. Besides, the “signal intensities of the isomer relative to the major product” value in series [2] (DMSO-d6, rt) is “approximately 10%”. Moreover, the “time to appearance of second set of NMR signals (cis/trans isomer)” value in series [2] (DMSO-d6, rt) is on record as “within minutes”. Further, the time of isomerization result in series [2] (acetone-d6) was “within days”. In addition, the results for the IC50 in series [3] (after IL-1 stimulation (100 pg/ml)) and in series [3] (after TNF alpha stimulation (1 ng/ml)) were 7.8 µM and 4.5 µM, respectively. Besides, the Solubility result in series [4] (Acetone) is on record as “++++ (++++: 100% dissolved)”; in series [4] (DMSO) it was “++++ (++++: 100% dissolved)”; in series [4] (H2O), “− (−: 0% dissolved)”; in series [4] (MeCN), “+++ (+++: 80% dissolved)”; in series [4] (MeOH) it was “+ (+: 20% dissolved)”. The “effect on IkappaB phosphorylation (Western blot), comparison of COM 73 and COM 54 family” value in series [1] is reported as “no effect”.
